Experimental data published in ChEMBL document CHEMBL5465560, “Selectivity Literature for EUbOPEN Chemogenomic Library” (2024).

Columns and labels:
Ephrin type-A receptor 4 = Ephrin type-A receptor 4 (Homo sapiens, UniProt P54764); test: Selectivity interaction (KinomeScan (DiscoverX)) EUB0000666a EPHA4; settings: at 10 µM
[1] = target: RAC-gamma serine/threonine-protein kinase (Homo sapiens, UniProt Q9Y243); test: Selectivity interaction (KinomeScan (DiscoverX)) EUB0001079a AKT3; settings: at 1 µM
[2] = target: Calcium/calmodulin-dependent protein kinase type II subunit delta (Homo sapiens) (UniProt Q13557); test: Selectivity interaction (Kinase panel (KiNativ target engagement assay in Jurkat cells)) EUB0001635a CAMK2D; assay type: cell-based; settings: Selectivity number of off-targets 0.0, Selectivity number of targets 233.0, Source Knowledge https://www.sciencedirect.com/science/article/pii/S2451945619300674?via%3Dihub, at 1 µM
[3] = target: Tyrosine-protein kinase Lyn (Homo sapiens, UniProt P07948); test: Selectivity interaction (ActivX KiNativ screen (kinase selectivity in THP-1 cell lysates)) EUB0000639a LYN; assay type: subcellular; settings: lysate, at 1 µM
[4] = test system: eIF-2-alpha kinase GCN2 (Homo sapiens), Q9P2K8 [S808G]; test: Selectivity interaction (KinomeScan (DiscoverX)) EUB0000595a EIF2AK4; settings: at 10 µM
[5] = target: Dual specificity protein kinase CLK1 (Homo sapiens, UniProt P49759); test: Selectivity interaction (KinomeScan (DiscoverX)) EUB0000595a CLK1; settings: at 10 µM
[6] = target: Casein kinase I isoform gamma-3 (Homo sapiens) (UniProt Q9Y6M4); test: Selectivity interaction (KinomeScan (DiscoverX)) EUB0000092b CSNK1G3; settings: at 10 µM
[7] = target: Histone-lysine N-methyltransferase KMT5B (Homo sapiens) (UniProt Q4FZB7); test: Selectivity interaction (Methyltransferase screen (Scintillation proximity assays)) EUB0000255b SUV420H1
[8] = target: T1, SNF-related serine/threonine-protein kinase (Homo sapiens) (UniProt Q9NRH2); test: Selectivity interaction (KinomeScan (DiscoverX)) EUB0000045b SNRK
T1 sequence (whole entry): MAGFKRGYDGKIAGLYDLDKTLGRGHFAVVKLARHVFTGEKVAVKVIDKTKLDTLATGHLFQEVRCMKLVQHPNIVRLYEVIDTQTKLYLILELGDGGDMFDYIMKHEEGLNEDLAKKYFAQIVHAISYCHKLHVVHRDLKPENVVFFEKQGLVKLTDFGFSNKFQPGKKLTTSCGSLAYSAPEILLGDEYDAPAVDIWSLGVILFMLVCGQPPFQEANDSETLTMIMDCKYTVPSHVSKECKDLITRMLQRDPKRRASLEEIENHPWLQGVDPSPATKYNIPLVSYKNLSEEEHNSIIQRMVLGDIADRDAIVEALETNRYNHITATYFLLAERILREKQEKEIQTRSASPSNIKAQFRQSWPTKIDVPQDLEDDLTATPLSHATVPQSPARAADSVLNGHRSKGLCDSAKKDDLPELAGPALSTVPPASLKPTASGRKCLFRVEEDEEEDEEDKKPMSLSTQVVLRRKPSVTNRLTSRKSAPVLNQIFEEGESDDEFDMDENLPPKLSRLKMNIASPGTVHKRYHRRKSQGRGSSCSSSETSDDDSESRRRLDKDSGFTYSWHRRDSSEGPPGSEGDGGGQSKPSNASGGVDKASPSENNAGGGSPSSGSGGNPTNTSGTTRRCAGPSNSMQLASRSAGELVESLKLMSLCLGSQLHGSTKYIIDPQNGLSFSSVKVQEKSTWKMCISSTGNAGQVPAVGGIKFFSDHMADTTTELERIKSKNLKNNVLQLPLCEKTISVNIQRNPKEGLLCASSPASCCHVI

[9] = target: Ribosomal protein S6 kinase alpha-1 (Homo sapiens, UniProt Q15418); test: Selectivity interaction (ActivX KiNativ screen (ex vivo kinase selectivity in human PBMCs)) EUB0001619a RPS6KA1; assay type: cell-based; settings: PBMC, at 1 µM
[10] = target: Tyrosine-protein kinase CSK (Homo sapiens) (UniProt P41240); test: Selectivity interaction (Upstate Kinase Profiler service (Millipore)) EUB0000056c CSK; settings: at 1 µM
[11] = Selectivity interaction (KinomeScan (DiscoverX)) EUB0000607a CDK2H; settings: at 10 µM
[12] = target: T2, Ephrin type-B receptor 1 (Homo sapiens) (UniProt P54762); test: Selectivity interaction (KinomeScan (DiscoverX)) EUB0000607a EPHB1; settings: at 10 µM
T2 sequence (whole entry): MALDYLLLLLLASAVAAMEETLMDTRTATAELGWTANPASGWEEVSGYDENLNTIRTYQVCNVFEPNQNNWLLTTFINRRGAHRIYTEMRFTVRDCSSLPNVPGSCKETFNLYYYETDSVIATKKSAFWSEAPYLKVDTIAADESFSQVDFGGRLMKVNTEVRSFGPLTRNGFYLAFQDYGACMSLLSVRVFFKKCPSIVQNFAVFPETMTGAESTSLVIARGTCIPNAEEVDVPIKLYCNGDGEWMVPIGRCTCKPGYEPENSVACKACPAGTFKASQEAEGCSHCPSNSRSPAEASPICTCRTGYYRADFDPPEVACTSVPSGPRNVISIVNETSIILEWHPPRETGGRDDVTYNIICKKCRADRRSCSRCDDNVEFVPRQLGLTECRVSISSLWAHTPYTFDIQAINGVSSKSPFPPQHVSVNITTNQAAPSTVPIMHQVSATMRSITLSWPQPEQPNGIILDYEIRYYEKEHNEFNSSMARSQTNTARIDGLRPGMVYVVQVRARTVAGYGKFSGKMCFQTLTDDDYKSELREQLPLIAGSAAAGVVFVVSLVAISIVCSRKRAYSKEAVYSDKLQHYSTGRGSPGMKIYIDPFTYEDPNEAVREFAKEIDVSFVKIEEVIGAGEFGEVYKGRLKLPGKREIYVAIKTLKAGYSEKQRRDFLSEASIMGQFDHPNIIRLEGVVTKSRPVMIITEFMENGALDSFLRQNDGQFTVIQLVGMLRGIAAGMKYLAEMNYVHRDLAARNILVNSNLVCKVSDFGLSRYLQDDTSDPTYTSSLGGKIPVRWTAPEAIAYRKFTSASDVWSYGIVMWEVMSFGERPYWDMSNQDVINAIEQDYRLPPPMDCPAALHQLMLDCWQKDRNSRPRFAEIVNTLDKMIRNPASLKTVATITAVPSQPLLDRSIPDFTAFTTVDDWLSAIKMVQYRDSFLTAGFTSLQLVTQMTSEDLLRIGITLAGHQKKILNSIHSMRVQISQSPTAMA

[13] = target: Tyrosine-protein kinase HCK (Homo sapiens) (UniProt P08631); test: Selectivity interaction (KinomeScan (DiscoverX)) EUB0000607a HCK; settings: at 10 µM

Sequence of Histone-lysine N-methyltransferase KMT5B (Homo sapiens) (Q4FZB7 whole entry, looked up): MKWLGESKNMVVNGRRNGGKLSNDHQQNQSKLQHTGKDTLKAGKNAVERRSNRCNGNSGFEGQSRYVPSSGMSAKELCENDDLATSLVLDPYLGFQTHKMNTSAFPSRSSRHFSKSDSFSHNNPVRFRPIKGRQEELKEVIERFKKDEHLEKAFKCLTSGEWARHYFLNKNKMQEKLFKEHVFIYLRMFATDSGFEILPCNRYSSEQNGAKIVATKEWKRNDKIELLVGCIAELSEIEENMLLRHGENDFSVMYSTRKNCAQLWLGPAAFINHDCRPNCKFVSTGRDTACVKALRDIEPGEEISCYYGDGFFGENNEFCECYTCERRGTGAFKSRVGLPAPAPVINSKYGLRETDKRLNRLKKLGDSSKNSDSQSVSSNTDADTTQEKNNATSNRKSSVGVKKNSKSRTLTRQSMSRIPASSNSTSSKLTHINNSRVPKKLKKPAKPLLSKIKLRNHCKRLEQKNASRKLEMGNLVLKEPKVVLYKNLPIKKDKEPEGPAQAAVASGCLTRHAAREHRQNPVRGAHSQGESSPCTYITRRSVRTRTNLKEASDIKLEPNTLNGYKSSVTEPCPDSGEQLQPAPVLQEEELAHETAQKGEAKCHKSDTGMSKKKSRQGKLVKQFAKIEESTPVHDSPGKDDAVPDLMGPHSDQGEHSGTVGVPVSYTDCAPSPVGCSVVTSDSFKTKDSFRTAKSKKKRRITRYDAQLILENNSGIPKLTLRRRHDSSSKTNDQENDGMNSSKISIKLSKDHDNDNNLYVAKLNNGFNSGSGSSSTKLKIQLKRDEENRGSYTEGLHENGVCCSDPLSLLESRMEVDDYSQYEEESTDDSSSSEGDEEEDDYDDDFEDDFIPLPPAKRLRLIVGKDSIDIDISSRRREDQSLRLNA
Sequence of eIF-2-alpha kinase GCN2 (Homo sapiens), Q9P2K8 [S808G] (Q9P2K8 whole entry S808G): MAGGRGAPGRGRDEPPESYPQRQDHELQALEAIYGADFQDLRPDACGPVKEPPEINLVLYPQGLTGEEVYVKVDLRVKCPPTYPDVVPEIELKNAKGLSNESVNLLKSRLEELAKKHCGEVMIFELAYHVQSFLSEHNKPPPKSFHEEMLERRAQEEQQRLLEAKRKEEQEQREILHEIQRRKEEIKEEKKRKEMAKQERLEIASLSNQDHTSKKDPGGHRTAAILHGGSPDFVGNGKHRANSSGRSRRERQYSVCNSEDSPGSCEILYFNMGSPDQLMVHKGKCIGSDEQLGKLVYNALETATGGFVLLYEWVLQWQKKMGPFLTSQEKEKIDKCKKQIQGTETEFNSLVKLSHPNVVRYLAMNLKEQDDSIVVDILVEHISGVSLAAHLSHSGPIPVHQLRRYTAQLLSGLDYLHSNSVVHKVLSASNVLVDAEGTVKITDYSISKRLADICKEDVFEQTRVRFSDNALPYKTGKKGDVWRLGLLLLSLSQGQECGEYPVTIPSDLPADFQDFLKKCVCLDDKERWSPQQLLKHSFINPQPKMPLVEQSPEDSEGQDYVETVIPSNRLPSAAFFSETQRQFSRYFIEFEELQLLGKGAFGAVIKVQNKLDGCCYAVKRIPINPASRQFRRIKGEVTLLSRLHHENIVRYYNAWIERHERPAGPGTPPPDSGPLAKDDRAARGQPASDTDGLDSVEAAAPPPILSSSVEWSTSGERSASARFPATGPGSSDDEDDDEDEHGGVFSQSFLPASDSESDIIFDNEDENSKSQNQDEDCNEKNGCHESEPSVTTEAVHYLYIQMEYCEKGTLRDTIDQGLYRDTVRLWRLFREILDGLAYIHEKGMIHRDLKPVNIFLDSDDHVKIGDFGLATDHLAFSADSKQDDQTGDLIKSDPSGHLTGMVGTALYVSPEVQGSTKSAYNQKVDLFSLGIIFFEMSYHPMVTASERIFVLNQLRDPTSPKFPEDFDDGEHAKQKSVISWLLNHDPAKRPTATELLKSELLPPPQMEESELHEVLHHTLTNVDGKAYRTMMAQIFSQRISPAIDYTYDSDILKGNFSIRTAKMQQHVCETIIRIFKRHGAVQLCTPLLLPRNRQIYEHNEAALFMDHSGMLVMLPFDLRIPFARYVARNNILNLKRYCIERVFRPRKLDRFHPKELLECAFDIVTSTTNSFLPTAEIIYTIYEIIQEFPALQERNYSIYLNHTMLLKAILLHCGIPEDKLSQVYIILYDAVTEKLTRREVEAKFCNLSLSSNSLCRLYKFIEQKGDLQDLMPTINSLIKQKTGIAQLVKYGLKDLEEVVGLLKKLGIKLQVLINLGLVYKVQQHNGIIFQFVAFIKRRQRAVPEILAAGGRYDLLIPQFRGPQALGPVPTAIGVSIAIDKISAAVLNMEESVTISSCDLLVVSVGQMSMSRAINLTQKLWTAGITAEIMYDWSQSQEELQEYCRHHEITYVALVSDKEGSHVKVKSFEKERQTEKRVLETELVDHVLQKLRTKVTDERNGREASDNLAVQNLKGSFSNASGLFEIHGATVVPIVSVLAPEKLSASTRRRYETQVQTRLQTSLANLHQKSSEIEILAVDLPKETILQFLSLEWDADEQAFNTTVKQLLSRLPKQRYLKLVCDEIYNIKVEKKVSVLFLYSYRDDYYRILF
Sequence of Casein kinase I isoform gamma-3 (Homo sapiens) (Q9Y6M4 whole entry, looked up, canonical isoform): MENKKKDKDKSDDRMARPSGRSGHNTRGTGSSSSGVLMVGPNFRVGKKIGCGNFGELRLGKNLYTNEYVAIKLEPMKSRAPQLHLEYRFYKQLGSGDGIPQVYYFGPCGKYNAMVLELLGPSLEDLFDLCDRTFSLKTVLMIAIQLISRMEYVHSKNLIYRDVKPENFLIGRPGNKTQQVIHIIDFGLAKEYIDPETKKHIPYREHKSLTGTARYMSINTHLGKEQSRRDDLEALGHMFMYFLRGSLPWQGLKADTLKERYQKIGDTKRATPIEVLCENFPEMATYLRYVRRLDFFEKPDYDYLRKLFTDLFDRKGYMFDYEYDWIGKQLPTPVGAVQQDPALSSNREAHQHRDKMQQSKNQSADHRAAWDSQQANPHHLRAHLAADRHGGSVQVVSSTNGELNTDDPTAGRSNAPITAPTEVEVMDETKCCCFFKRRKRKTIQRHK
Sequence of Calcium/calmodulin-dependent protein kinase type II subunit delta (Homo sapiens) (Q13557 whole entry): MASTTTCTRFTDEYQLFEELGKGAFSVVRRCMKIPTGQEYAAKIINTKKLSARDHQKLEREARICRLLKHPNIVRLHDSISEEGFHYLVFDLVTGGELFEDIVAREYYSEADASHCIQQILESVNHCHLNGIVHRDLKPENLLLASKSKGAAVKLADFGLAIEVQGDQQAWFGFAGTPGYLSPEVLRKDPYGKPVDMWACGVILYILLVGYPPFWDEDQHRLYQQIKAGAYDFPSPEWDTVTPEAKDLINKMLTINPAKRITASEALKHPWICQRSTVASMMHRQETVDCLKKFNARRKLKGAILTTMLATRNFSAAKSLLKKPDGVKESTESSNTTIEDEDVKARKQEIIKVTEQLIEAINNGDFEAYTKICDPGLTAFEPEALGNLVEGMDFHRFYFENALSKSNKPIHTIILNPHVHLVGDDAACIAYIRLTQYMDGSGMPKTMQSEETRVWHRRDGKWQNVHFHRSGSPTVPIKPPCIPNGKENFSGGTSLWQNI
Sequence of Tyrosine-protein kinase CSK (Homo sapiens) (P41240 2-450 limits assumed): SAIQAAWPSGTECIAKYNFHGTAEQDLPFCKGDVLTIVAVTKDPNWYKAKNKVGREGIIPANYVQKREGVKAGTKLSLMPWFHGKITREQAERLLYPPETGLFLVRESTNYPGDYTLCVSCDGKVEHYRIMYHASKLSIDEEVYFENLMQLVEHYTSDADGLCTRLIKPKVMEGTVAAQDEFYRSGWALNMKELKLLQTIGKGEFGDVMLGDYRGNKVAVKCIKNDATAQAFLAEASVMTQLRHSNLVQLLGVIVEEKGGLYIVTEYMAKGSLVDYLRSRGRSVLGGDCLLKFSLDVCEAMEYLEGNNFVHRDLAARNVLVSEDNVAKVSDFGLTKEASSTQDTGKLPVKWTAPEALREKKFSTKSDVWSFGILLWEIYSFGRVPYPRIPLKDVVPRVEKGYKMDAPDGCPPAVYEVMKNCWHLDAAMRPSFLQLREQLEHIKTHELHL
Sequence of Ribosomal protein S6 kinase alpha-1 (Q15418 whole entry): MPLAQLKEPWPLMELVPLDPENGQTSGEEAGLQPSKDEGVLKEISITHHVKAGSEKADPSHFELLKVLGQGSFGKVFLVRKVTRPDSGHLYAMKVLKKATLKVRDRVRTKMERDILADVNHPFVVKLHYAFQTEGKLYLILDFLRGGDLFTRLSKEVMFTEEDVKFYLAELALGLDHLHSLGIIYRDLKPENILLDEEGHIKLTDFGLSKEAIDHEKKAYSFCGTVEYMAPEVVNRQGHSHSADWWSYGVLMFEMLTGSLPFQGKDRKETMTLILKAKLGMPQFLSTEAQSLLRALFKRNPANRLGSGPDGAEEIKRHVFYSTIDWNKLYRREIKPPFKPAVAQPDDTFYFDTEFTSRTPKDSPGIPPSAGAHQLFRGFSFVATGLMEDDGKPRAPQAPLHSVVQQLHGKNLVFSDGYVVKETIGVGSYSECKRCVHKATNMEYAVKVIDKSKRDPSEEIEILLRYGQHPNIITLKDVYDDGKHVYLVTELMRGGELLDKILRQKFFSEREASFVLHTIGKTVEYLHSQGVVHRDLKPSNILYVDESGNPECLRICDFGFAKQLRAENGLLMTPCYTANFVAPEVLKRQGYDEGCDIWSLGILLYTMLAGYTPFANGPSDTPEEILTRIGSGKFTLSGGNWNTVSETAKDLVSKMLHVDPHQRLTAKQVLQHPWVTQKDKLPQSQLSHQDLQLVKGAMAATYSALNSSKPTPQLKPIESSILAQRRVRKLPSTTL

O=C(NOC[C@H](O)CO)c1ccc(F)c(F)c1Nc1ccc(I)cc1F
% of control (Ephrin type-A receptor 4): 100%

Nc1cnc(N2CCc3cc(S(=O)(=O)Nc4c(F)cc(Cl)cc4F)cc(N4CCCC4=O)c32)nc1 [TP-020n]
% of control [1]: 94%

C=CC(=O)Nc1ccc(C(=O)Nc2[nH]nc3c2CN(C(=O)N[C@H](CN(C)C)c2ccccc2)C3(C)C)cc1
% of engagement [2]: 34.1%

CC[C@@H]1[C@H](F)C(=O)N[C@@H]1COc1nccc2cc(C(N)=O)c(OC)cc12 [ZIMLOVISERTIB]
% of inhibition [3]: -14.1%

COCC(=O)NC/C=C/c1ccc2ncnc(Nc3ccc(Oc4ccc(C)nc4)c(C)c3)c2c1 [CP-724714]
% of control [4]: 81% | % of control [5]: 90%

CCC(=O)N1CCN(c2ccc(-n3c(=O)ccc4cnc5ccc(-c6cnc7ccccc7c6)cc5c43)cc2C(F)(F)F)CC1
% of control [6]: 100%

COCCN1CCC(c2cc(CN(C)C(=O)c3cccc(Oc4ccccc4)c3)ccn2)CC1
% activity ([7]; at 1 µM): > 95% | % activity ([7]; at 10 µM): > 90%

C=CC(=O)Nc1cc(-n2c(=O)ccc3cnc4ccc(-c5ccc(NS(C)(=O)=O)cc5)cc4c32)ccc1C
% of control ([8]; at 1 µM): 100% | % of control ([8]; at 10 µM): 58%

N#Cc1cccc(-c2c[nH]c3ncnc(N4CCOCC4)c23)c1
% of inhibition [9]: 13%

Cc1ccc(-c2ccc3c(ccc4sc5c(c43)NC[C@@H](C)NC5=O)n2)cn1
% of inhibition [10]: 5%

CNC(=O)Nc1ccc(-c2nc(N3CC4CCC(C3)O4)c3cnn(C4CCC5(CC4)OCCO5)c3n2)cc1
% of control [11]: 100% | % of control [12]: 90% | % of control [13]: 100%
